Literature values, collected in US11147268B2, “Food contact surface sanitizing liquid” (THE CLOROX COMPANY, priority 2015, dated 2021).

| Structure (SMILES) | Vapor Pressure mmHg (@25° C.) | Vapor Pressure mmHg @ 20° C. [mmHg] |
| --- | --- | --- |
| CC(C)O [Isopropyl alcohol] |  | 33 |
| OCCCO [1,3 propanediol] |  | 0.8 |

Further lines, results first:

| Vapor Pressure mmHg (@25° C.) | Vapor Pressure mmHg @ 20° C. [mmHg] | Structure (SMILES) |
| --- | --- | --- |
| 0.021 (@25° C.) mmHg |  | CC(CO)CO [2-methyl 1,3 propanediol] |
|  | 0.07 | CC(O)CO (centres unmarked) [1,2, propylene glycol] |
|  | 43 | CCO [Ethanol] |
